Measured values taken from BigSolDB 2.1.

CC(C)[C@H](C)[C@@H](O)[C@H](O)[C@@H](C)[C@H]1CC[C@H]2[C@@H]3COC(=O)[C@H]4C[C@H](O)[C@H](O)C[C@]4(C)[C@H]3CC[C@]12C
solubility (mole fraction)
Conditions	278.15 K	283.15 K	288.15 K	293.15 K	298.15 K	303.15 K	308.15 K	313.15 K	318.15 K	323.15 K
in THF	0.16	0.185	0.21	0.239	0.269	0.297	0.328	0.361	0.395	0.43
in acetone	0.09	0.106	0.124	0.145	0.166	0.188	0.213	0.239	0.267	0.296
in acetonitrile	0.00057	0.00067	0.00078	0.0009	0.00103	0.00118	0.00133	0.00149	0.00167	0.00186
in chloroform	0.00083	0.00095	0.00109	0.00125	0.00142	0.0016	0.00181	0.00204	0.00229	0.00256
in isopropanol	0.00031	0.00036	0.00041	0.00047	0.00054	0.00062	0.0007	0.0008	0.00091	0.00104
in methanol	0.0321	0.0377	0.0442	0.0511	0.0588	0.0675	0.077	0.0875	0.099	0.112
in n-butanol	0.00046	0.00054	0.00062	0.00071	0.00082	0.00093	0.00106	0.00121	0.00137	0.00155
in n-heptane	7e-05	0.0001	0.00014	0.00018	0.00022	0.00028	0.00033	0.00039	0.00046	0.00052
in n-hexane	9e-05	0.00012	0.00016	0.0002	0.00025	0.00031	0.00037	0.00044	0.00051	0.00059
